Activity calls are given as the source filed them.
Key:
Type in all cases: functional
[1] = biological target: T1, Serine/threonine-protein kinase D3 (Homo sapiens, UniProt O94806);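 also: determined within a kinase panel screen, with PRKCN as the panel member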
T1 sequence (O94806 whole entry): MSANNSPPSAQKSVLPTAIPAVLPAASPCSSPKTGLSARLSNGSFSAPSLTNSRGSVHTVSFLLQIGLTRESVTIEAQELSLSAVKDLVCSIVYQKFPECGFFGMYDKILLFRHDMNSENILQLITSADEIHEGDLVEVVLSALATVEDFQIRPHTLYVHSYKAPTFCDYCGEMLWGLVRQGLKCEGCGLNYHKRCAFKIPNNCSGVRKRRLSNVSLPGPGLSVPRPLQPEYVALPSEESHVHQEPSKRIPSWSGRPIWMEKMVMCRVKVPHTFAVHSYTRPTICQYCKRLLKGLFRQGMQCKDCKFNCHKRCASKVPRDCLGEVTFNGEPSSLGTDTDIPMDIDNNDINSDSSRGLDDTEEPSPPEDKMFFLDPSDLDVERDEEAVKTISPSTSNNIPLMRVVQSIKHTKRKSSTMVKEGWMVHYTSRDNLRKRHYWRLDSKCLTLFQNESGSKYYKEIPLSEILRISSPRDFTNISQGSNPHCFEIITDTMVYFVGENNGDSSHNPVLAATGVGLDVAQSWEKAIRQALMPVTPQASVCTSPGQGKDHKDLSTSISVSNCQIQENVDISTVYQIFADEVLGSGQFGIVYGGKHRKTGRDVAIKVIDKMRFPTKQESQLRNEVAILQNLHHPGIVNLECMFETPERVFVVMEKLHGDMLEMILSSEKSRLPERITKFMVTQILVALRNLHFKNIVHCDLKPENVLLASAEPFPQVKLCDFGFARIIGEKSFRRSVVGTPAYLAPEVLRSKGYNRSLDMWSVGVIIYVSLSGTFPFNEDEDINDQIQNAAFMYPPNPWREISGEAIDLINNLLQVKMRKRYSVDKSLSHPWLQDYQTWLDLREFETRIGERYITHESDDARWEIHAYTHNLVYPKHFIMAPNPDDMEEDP

[2] = biological target: Serine/threonine-protein kinase PAK 4 (Homo sapiens, UniProt O96013);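 also: value obtained within a kinome profiling panel in which PAK4 was one of the panel members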
[3] = biological target: T2, Replicative DNA helicase DnaB (Mycobacterium tuberculosis, UniProt P9WMR3); assay: DnaB intein splicing inhibitors, dose response, biochemical, cell-free fluorescence (AID 449749)
T2 sequence (P9WMR3 whole entry): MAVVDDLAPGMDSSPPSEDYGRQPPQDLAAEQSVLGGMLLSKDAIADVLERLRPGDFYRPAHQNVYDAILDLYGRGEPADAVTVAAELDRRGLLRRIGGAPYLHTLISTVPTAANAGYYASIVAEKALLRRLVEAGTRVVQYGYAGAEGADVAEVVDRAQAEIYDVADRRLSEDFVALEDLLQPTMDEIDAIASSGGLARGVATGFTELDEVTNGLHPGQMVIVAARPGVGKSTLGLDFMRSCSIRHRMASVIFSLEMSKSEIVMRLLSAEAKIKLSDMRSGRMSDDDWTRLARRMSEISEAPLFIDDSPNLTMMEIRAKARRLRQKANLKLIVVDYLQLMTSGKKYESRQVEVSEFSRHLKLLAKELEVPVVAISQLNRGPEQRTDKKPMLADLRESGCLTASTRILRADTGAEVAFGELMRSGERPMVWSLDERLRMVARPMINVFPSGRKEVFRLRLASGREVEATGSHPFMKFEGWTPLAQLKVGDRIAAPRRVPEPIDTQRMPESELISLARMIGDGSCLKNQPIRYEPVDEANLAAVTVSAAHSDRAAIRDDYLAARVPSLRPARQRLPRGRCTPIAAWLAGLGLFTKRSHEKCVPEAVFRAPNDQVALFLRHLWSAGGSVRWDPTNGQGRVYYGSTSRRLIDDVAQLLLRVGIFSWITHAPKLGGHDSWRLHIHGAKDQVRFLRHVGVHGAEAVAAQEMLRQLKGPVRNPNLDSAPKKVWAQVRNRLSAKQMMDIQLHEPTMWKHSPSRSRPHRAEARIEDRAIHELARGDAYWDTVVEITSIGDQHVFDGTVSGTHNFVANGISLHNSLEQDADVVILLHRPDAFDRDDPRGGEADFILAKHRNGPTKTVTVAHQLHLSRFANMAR

[4] = biological target: T3, Apoptotic protease-activating factor 1 (Homo sapiens, UniProt O14727)
T3 sequence (O14727 whole entry): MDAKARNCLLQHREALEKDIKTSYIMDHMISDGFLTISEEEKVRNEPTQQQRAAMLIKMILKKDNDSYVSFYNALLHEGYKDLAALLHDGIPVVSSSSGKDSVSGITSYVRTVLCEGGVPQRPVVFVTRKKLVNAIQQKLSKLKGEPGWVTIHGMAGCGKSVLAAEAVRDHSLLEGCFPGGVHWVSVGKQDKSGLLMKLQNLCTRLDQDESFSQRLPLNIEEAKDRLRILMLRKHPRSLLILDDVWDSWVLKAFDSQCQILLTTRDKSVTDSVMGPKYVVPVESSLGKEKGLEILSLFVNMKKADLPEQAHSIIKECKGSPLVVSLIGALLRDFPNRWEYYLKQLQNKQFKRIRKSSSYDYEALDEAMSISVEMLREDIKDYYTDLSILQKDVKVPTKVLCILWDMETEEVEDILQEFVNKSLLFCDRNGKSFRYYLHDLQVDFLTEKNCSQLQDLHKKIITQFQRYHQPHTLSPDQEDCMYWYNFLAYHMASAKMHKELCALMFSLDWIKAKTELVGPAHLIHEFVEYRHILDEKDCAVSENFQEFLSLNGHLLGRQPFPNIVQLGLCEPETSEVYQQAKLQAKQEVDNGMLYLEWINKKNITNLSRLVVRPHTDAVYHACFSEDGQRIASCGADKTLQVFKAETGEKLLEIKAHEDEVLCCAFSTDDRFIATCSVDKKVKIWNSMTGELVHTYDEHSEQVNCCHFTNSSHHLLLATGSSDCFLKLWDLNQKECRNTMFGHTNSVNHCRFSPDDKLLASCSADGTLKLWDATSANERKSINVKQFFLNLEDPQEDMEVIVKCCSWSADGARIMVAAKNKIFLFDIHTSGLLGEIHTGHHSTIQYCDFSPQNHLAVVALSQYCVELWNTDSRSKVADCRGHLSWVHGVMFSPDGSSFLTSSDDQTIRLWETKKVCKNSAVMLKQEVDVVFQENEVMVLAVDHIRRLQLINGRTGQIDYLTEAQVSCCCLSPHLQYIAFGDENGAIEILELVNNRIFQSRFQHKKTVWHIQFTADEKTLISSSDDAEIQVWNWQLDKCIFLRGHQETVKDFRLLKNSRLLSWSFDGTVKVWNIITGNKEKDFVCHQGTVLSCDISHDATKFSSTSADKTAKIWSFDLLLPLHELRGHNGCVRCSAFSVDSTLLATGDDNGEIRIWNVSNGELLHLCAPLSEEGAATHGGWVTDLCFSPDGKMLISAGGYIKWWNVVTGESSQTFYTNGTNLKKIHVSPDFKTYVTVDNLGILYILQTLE

Serine/threonine-protein kinase PAK 4, sequence (O96013 whole entry): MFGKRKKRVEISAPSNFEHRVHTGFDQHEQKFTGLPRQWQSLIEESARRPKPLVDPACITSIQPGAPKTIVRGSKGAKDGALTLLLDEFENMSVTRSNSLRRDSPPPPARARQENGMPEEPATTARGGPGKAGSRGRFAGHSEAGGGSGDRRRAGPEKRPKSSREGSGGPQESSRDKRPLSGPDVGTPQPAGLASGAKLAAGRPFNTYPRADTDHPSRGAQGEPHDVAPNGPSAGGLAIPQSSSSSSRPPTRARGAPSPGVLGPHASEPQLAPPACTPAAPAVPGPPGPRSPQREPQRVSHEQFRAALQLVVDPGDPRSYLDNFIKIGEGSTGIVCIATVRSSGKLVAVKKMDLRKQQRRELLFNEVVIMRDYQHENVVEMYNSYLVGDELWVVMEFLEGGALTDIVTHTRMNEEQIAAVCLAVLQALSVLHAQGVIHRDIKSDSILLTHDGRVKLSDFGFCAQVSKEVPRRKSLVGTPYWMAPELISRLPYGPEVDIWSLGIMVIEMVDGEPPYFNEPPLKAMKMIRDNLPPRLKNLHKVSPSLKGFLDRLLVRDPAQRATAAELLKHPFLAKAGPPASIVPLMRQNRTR

SMILES | Ki [1] | Ki [2] | AC50 [3] | IC50 [4]
O=C(Nc1cccc(C(F)(F)F)n1)Nc1ccnc2cc(OC(F)F)ccc12 | > 3.98 µM (inactive) | > 5.01 µM (inactive) |  | 
Cc1cc(C)c(S(=O)(=O)/N=C2\C=C(Nc3ccc(C(=O)O)cc3)C(=O)c3ccccc32)c(C)c1 |  |  | 0.149 µM (active) | 6.01 µM (active)
CCC1CC(NS(=O)(=O)C2CC2)CC1c1ncc2cnc3[nH]ccc3n12 (centres undefined) | > 3.98 µM (inactive) | 2.51 µM (active) |  | 
COC(=O)c1nc(-c2ccc3c(n2)C(=O)C(=N)C(OC)=C3O)c(N)c(-c2ccc(OC)c(OC)c2O)c1C |  |  | > 380 µM (inconclusive) | 3.39 µM (active)
O=C(Cc1ccccc1)NC1(O)C(=O)c2ccccc2C1=O |  |  | 6.13 µM (active) | 11 µM (active)
O=c1[nH]c2cc(Br)cnc2[nH]1 | 20 µM (active) | 39.8 µM (active) |  | 
O=C(Nc1cccc(C(F)(F)F)n1)Nc1ccnc2cc(Cl)ccc12 | > 3.98 µM (inactive) | > 5.01 µM (inactive) |  | 

From ChEMBL document CHEMBL1201862, “PubChem BioAssay data set” (2004)
